The supplement of paper PMC8967900

Columns and labels:
Assay in all cases: selective drug sensitivity score (sDSS, relative to normal bone marrow) (sDSS (score)); higher = more potent and effective on the cell line relative to normal bone marrow cells
Conditions in all cases: 72 h
[1] = test system: P30-OHKUBO
[2] = test system: CCRF-CEM
[3] = test system: COG-LL-402h
[4] = test system: JURKAT
[5] = test system: KASUMI-2
[6] = test system: RPMI-8402
[7] = test system: DND-41
[8] = test system: COG-LL-319h
[9] = test system: PEER
[10] = test system: MOLT-14
[11] = test system: KOPN-8
[12] = test system: TANOUE
[13] = test system: MHH-CALL-3
[14] = test system: REH
[15] = test system: MOLT-4
[16] = test system: HAL-01
[17] = test system: TMD5
[18] = test system: 380
[19] = test system: CCRF-HSB2
[20] = test system: ALL-SIL
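Note: ALL cell lines in 384-well plates, five doses spanning 10,000-fold, each plate scaled between vehicle and 100 µmol/L benzalkonium chloride controls, sDSS an adapted area-under-curve metric.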

| Structure (SMILES) | selective drug sensitivity score [1] | selective drug sensitivity score [2] | selective drug sensitivity score [3] | selective drug sensitivity score [4] | selective drug sensitivity score [5] | selective drug sensitivity score [6] | selective drug sensitivity score [7] | selective drug sensitivity score [8] | selective drug sensitivity score [9] | selective drug sensitivity score [10] | selective drug sensitivity score [11] | selective drug sensitivity score [12] | selective drug sensitivity score [13] | selective drug sensitivity score [14] | selective drug sensitivity score [15] | selective drug sensitivity score [16] | selective drug sensitivity score [17] | selective drug sensitivity score [18] | selective drug sensitivity score [19] | selective drug sensitivity score [20] |
| --- | --- | --- | --- | --- | --- | --- | --- | --- | --- | --- | --- | --- | --- | --- | --- | --- | --- | --- | --- | --- |
| O=C(Nc1ccncc1)C(=O)c1cn(Cc2ccc(Cl)cc2)c2ccccc12 [Indibulin] (top concentration 10000 nM) | 6.14 | 6.04 | 3.64 | 15.1 | 7.14 | 5.84 | 5.54 | 17 | 11.7 | 14.1 | 17.9 | -2.76 | 1.64 | 4.14 | 9.64 | 5.34 | 3.44 | 8.74 | 11.2 | 23.4 |
| CC(C)C[C@H](NC(=O)CNC(=O)c1cc(Cl)ccc1Cl)B(O)O [Ixazomib] (top concentration 1000 nM) | 6.66 | 10.5 | 3.46 | 4.86 | 4.66 | 6.56 | 9.36 | 6.06 | 7.66 | 4.96 | 6.26 | -6.64 | 8.96 | 6.76 | 5.46 | 8.26 | 4.06 | 5.56 | 8.86 | 7.56 |
| CC(C)NC(=O)COc1cccc(-c2nc(Nc3ccc4[nH]ncc4c3)c3ccccc3n2)c1 [KD025] (top concentration 5000 nM) | 1.84 | -0.66 | -5.36 | -3.06 | -5.06 | -2.36 | -5.36 | -1.06 | -1.56 | -3.36 | 0.74 | -5.36 | -5.36 | -5.36 | -2.76 | -3.26 | -3.16 | -5.36 | -3.86 | 1.24 |
| Nc1cccc2c1CN(C1CCC(=O)NC1=O)C2=O (stereo not given) [Lenalidomide] (top concentration 100000 nM) | -2.28 | 0.92 | -2.28 | -2.28 | -2.28 | -2.08 | 2.12 | -1.78 | -1.28 | 0.12 | 1.02 | -2.28 | -2.28 | -2.28 | -2.28 | 4.22 | 5.02 | 1.62 | 0.22 | -0.88 |
| Sc1ncnc2nc[nH]c12 [Mercaptopurine] (top concentration 10000 nM) | 8.9 | 14.1 | 6.6 | 10.3 | 12.4 | 9.2 | 11.1 | 17.7 | 6.7 | 10.9 | 14.9 | 7.2 | 0 | 17 | 8.7 | 12.4 | 0 | 7.4 | 12.6 | 14.8 |
| Cc1ccc(C(=O)Nc2ccc(Oc3cc4cnn(C)c4cc3-c3cn[nH]c3)c(F)c2)c(=O)n1-c1ccc(F)cc1 [Merestinib] (top concentration 1000 nM) | 0.88 | -0.62 | -0.62 | -0.62 | -0.62 | -0.62 | -0.62 | -0.62 | -0.22 | -0.62 | -0.62 | -0.62 | -0.62 | -0.62 | -0.62 | 5.68 | -0.62 | -0.62 | -0.22 | 0.28 |
| CNC(=O)c1nn(C)c2c1C(C)(C)Cc1cnc(Nc3ccc(N4CCN(C)CC4)cc3)nc1-2 [Milciclib] (top concentration 10000 nM) | 4.94 | 2.04 | 12 | 4.34 | -2.56 | 5.54 | 9.04 | 7.64 | 5.84 | 7.04 | 5.84 | -3.76 | -5.26 | 4.44 | 3.84 | 5.94 | -1.16 | -0.06 | 13.9 | 10.9 |
| N#CCNC(=O)c1ccc(-c2ccnc(Nc3ccc(N4CCOCC4)cc3)n2)cc1 [Momelotinib] (top concentration 10000 nM) | 1.58 | -2.52 | -0.12 | -5.12 | -5.82 | -0.82 | -0.32 | 0.28 | 1.08 | -3.92 | -1.62 | -9.62 | -9.42 | -4.82 | -4.72 | -5.22 | -4.72 | -9.62 | 1.08 | -1.82 |
| Cc1ccc(C(=O)Nc2cccc(C(F)(F)F)c2)cc1Nc1nc(-c2cccnc2)nc2c1cnn2C [NVP-BHG712] (top concentration 10000 nM) | 5.98 | 3.38 | -2.32 | 2.98 | 2.38 | 5.08 | 5.38 | 3.68 | 8.18 | 2.28 | 7.78 | -2.32 | 1.48 | 6.18 | 3.08 | 2.98 | 7.28 | 1.28 | 10.3 | 13.3 |
| Cn1c(Nc2ccc(C(F)(F)F)cc2)nc2cc(Oc3ccnc(-c4ncc(C(F)(F)F)[nH]4)c3)ccc21 [NVP-RAF265] (top concentration 1000 nM) | 4.38 | 4.88 | 5.98 | 2.88 | -0.22 | 0.98 | 3.58 | 5.08 | 9.78 | 6.38 | 4.18 | 0.68 | 7.68 | 2.18 | 3.48 | 5.68 | 6.28 | 2.68 | 5.98 | 8.28 |
| CC1(C)CC[C@]2(NC(=O)C(C)(F)F)CC[C@]3(C)[C@H](C(=O)C=C4[C@@]5(C)C=C(C#N)C(=O)C(C)(C)[C@@H]5CC[C@]43C)[C@@H]2C1 [Omaveloxolone] (top concentration 10000 nM) | 0.68 | 0.78 | 3.38 | 0.88 | 6.38 | 0.88 | 3.98 | 10.5 | 4.38 | 1.58 | 8.68 | -0.52 | 10.1 | 2.58 | 2.18 | 3.58 | 1.48 | 10.9 | 3.78 | 1.28 |
| CC(C)c1cc(C(=O)N2Cc3ccc(CN4CCN(C)CC4)cc3C2)c(O)cc1O [Onalespib] (top concentration 2500 nM) | 1.32 | 4.62 | 7.22 | -1.18 | 7.72 | 1.32 | 4.62 | 7.92 | 0.52 | 6.02 | 6.82 | -6.48 | 8.42 | -0.08 | 5.92 | 1.82 | -3.28 | 6.52 | 7.32 | 4.52 |
| COC[C@H](NC(=O)c1cnc(C)s1)C(=O)N[C@@H](COC)C(=O)N[C@@H](Cc1ccccc1)C(=O)[C@@]1(C)CO1 [Oprozomib] (top concentration 2500 nM) | 5.7 | 6.9 | 2.2 | 0.3 | -1.1 | 2.8 | 11.1 | 3.5 | 12.5 | 2.8 | 3 | -8.7 | 3.3 | -0.4 | 12.6 | -0.8 | -1.6 | 0.3 | 14.2 | -0.1 |
| COc1ccccc1S(=O)(=O)Nc1ccc2c(c1)CN(C)C(=O)N2 [PFI-1] (top concentration 30000 nM) | 6.1 | 1.4 | 3.1 | 0.8 | 2.4 | 2.5 | 2.3 | 16.2 | 2.4 | 4.4 | 17.3 | -3.2 | 5.4 | -0.6 | -0.9 | 0.3 | -4.5 | 0.1 | 1 | 2 |
| NS(=O)(=O)OC[C@@H]1C[C@@H](n2ccc3c(N[C@H]4CCc5ccccc54)ncnc32)C[C@@H]1O [Pevonedistat] (top concentration 10000 nM) | 11.1 | 16.4 | 8.5 | 12.6 | 6.3 | 16.2 | 10.1 | 12.2 | 19.7 | 13.2 | 13 | -3.1 | 7.4 | 10.3 | 14 | -3.5 | 6.7 | 8.5 | 16.3 | 13.1 |
| CCCCc1nc2cc(/C=C/C(=O)NO)ccc2n1CCN(CC)CC [Pracinostat] (top concentration 10000 nM) | 5.68 | 4.68 | 13 | 2.48 | 12.5 | 5.08 | 3.48 | 10.1 | 3.98 | 6.18 | 8.68 | -7.72 | 16.5 | 0.38 | 3.48 | 1.88 | 5.78 | 13.2 | 5.88 | 5.18 |
| COc1cccc(OCCCN)c1-c1cc(Nc2cnc(C#N)cn2)n[nH]1 [Prexasertib] (top concentration 10000 nM) | 21.3 | 18.8 | 14.8 | 17.4 | 16.2 | 19.2 | 19.6 | 19.4 | 17.9 | 18.4 | 20.4 | -0.86 | 13.4 | 17 | 20.4 | 19 | 8.94 | 15.7 | 18.6 | 20.8 |
| Cc1cn(-c2cc(NC(=O)c3ccc(C)c(Nc4nccc(-c5cnccn5)n4)c3)cc(C(F)(F)F)c2)cn1 [Radotinib] (top concentration 10000 nM) | 5.1 | 0 | 0 | 0 | 0 | 3.3 | 13.8 | 13.2 | 19.3 | 0.6 | 10.3 | 1.3 | 0 | 0 | 1.2 | 0 | 22 | 1.8 | 8.2 | 43.3 |
